Data on two molecules can be found in patent US10350176B2 (priority 2013, dated 2019).

pIC50: −log10 of the molar value. Where two headings read alike, the source gives them in different places.

Data set [1] relates to Leishmania major in promastigote form. The experiment in a line: Promastigote growth inhibition assay (CellTiter-Blue). Conditions: 48 hours incubation; number of viable promastigotes reduced by 50%; read-out: L. major, in promastigote form (IC50). Format: cell-based.
Protocol: Antiparasitic activity in culture of promastigotes (insect form) was measured using a standard microdiluting method, determining the minimum inhibitory concentration (MIC) of the test sample, which leads to inhibition of parasite growth.
For promastigote growth inhibition assays the subculture 2 of L. major was cultured in Schneider's insect medium (Sigma, St. Louis, Mo., cat. No. S0146) supplemented with 50 μm/ml gentamicin (Sigma, St. Louis, Mo., cat. No. G1272), 63.7 μg/ml penicillin G (Sigma, St. Louis, Mo., cat. No. PENK), 100 μg/ml streptomycin (Sigma, St. Louis, Mo., cat. no. S6501), 2% human urine and 10% heat-inactivated fetal bovine serum (Sigma, St. Louis, Mo., cat. No. F2442).
Leishmania promastigotes in the logarithmic growth phase were dispensed into black 384-well plates (Corning, New York, N.Y., cat. No. 3571) at a concentration of 15,000 parasites/μl/well using a Multidrop Combi instrument (Thermo Fisher Scientific Inc., Waltham, Mass.). […] The metabolic capacity of the parasite was measured after 2.5 hours of incubation using the CellTiter-Blue® Reagent (Promega Corporation, Madison, Wis., cat. No. G8082) using EnVision Multilabel Reader (PerkinElmer Inc., Waltham, Mass.). Data were analyzed using non-linear regression (log (inhibitor) vs. response-variable slope). […]
Data set [2] relates to MRC5 (fetal lung fibroblasts). The settings on record: DPI 9.8 nM-1.25 μM; 48 hours incubation.
Protocol: (§1) Human cells CCD 841 (intestinal epithelial cells) and MRC5 (fetal lung fibroblasts) in appropriate growth media were dispensed into black 384-well plates (Corning, cat. No. 3571) at a density of 15,000 cells/25 μl/well using a Multidrop Combi (Thermo Scientific). After 48 hours incubation at 37° C. and 5% CO2, cell viability was determined using a commercial assay CellTiter Blue Cell Viability Assay (Promega, cat. No. G8082). […] Fluorescence intensity was measured by the detector (reader) EnVision (Perkin Elmer), and measured data were analysed using the software Prism5 (GraphPad Software, Inc.).
The next data set has as its system Leishmania major. The settings on record: primary screening, library compounds at 1 μM. The procedure:
The compounds were screened for growth inhibition of the parasite Leishmania major.
The compounds were reformatted into 384-well polypropylene plates (Corning, cat. No. 3657) at a final concentration of 1 μM in DMSO and used to screen the growth inhibition of the parasite Leishmania major.

The subject of another data set is Plasmodium falciparum. The settings on record: kills Plasmodium falciparum; Yuan et al. Nat Chem Biol 2009; cited from earlier work.
Data set [3] deals with Leishmania major in amastigote form. The experiment in a line: Cytotoxic effect on intracellular amastigotes in macrophages (flow cytometry, cell smears). In kind it is cell-based. Conditions: concentration at which number of infected macrophages decreased by 50%; 48 hours co-incubation.
Protocol: Macrophage precursors were isolated from bone marrow and incubated for 7 days at 37° C. and 5% CO2 in DMEM supplemented with supernatant of L929 cells (20 percent by volume) containing M-CSF. After differentiation the macrophages were infected with E-GFP-L. major in stationary phase of growth at a ratio of 1:10. Then the macrophages were incubated in DMEM supplemented with the supernatant of L929 cells (20% volume) containing M-CSF at 37° C. and 5% CO2. After 24 hours, the medium containing the extracellular parasites was discarded and the plates were washed 3 times with HBSS medium (Hanks' Balanced Salt Solution, Sigma, St. Louis, Mo., cat. No. H9269). […]
The samples were analyzed on a FACSCalibur flow cytometer (Becton, Dickinson and Company, Franklin Lakes, N.J.) using CellQuest Pro software (Becton, Dickinson and Company, Franklin Lakes, N.J.). […] The results were measured for 10,000 macrophages in the first experiment and for 20,000 macrophages in the second experiment. […]
Smears were stained with Giemsa (Sigma, St. Louis, Mo., cat. No. 11700) and analysed by fluorescence microscopy Leica6000DM (Leica Microsystems GmbH, Wetzlar, Germany) at a magnification 400×. The total number of parasites in 500 macrophages was determined. […]
Data set [4] concerns CCD 841 (intestinal epithelial cells). Conditions: DPI 9.8 nM-1.25 μM; 48 hours incubation.
Protocol: as §1
Data set [5] concerns L. major, antimony salts resistant, in promastigote form. The data set can be described thus: Promastigote growth inhibition assay, strain resistant to antimony salts. Format: cell-based, Leishmania major. Conditions: 48 hours incubation.
Protocol: Leishmania promastigotes in the logarithmic growth phase were dispensed into black 384-well plates (Corning, New York, N.Y., cat. No. 3571) at a concentration of 15,000 parasites/μl/well using a Multidrop Combi instrument (Thermo Fisher Scientific Inc., Waltham, Mass.). Immediately thereafter DPI (1 nM-500 nM) or amphotericin B (20 nM-10 μM) were added using “pitool” connected to JANUS® Automated Workstation (PerkinElmer Inc., Waltham, Mass.) and incubated for 48 hours. The metabolic capacity of the parasite was measured after 2.5 hours of incubation using the CellTiter-Blue® Reagent (Promega Corporation, Madison, Wis., cat. No. G8082) using EnVision Multilabel Reader (PerkinElmer Inc., Waltham, Mass.). Data were analyzed using non-linear regression (log (inhibitor) vs. response-variable slope). Preparation of the graphs and IC50 calculation were performed using GraphPad Prism 5 software (GraphPad Software, USA). The IC50 value was calculated by non-linear regression method as the concentration of DPI in which the number of viable promastigotes was reduced by 50% (values given below in Table 1).

Turning to `c1ccc2c(c1)[I+]c1ccccc1-2` [DPI, [1,1′-biphenyl]-2,2′-diyliodonium], the pIC50 is 8.00 in data set [1], 9.00 to 10.22 in the data set with Plasmodium falciparum and 7.82 in data set [5]. Also, the “viability of human MRC5 cells” value in data set [2] is “no negative effect on the viability”. Further, the “growth inhibition of the parasite Leishmania major” value in the data set on Leishmania major is given as “potent inhibitor of the growth of Leishmania major”; with Leishmania major (listed as diphenyleneiodonium (DPI)), “effective inhibitor”. Also, the “L. major, in intracellular amastigote form (LD50, μM)” value in data set [3] was 0.066 µM. Moreover, in data set [4], the “viability of human CCD 841 cells” value is on record as “no negative effect on the viability”.

With `C[C@@H]1[C@H](O)[C@@H](C)/C=C/C=C/C=C/C=C/C=C/C=C/C=C/[C@H](O[C@@H]2O[C@H](C)[C@@H](O)[C@H](N)[C@@H]2O)C[C@@H]2O[C@](O)(C[C@@H](O)C[C@@H](O)[C@H](O)CC[C@@H](O)C[C@@H](O)CC(=O)O[C@H]1C)C[C@H](O)[C@H]2C(=O)O` [amphotericin B, reference compound], the negative-log IC50 (pIC50) was 7.41 in data set [1] and 7.37 in data set [5]. Also, the “L. major, in intracellular amastigote form (LD50, μM)” value in data set [3] worked out at 0.143 µM.
